These results are taken from paper PMC11171921, “NinaB and BCO Collaboratively Participate in the β-Carotene Catabolism in Crustaceans: A Case Study on Chinese Mitten Crab Eriocheir sinensis” (International Journal of Molecular Sciences, 2024).

In the assay the target is T1, EsNinaBl (Eriocheir sinensis, UniProt Z9UJ24V2T0).
T1 construct: full ORF in pGEX-4T (GST fusion vector), expressed in beta-carotene-producing E. coli BL(DE3) with pAC-BETAipi; primer-encoded N-terminus MSTDEGG, C-terminus FIPAEAQ
T1 sequence (Z9UJ24V2T0 1-523): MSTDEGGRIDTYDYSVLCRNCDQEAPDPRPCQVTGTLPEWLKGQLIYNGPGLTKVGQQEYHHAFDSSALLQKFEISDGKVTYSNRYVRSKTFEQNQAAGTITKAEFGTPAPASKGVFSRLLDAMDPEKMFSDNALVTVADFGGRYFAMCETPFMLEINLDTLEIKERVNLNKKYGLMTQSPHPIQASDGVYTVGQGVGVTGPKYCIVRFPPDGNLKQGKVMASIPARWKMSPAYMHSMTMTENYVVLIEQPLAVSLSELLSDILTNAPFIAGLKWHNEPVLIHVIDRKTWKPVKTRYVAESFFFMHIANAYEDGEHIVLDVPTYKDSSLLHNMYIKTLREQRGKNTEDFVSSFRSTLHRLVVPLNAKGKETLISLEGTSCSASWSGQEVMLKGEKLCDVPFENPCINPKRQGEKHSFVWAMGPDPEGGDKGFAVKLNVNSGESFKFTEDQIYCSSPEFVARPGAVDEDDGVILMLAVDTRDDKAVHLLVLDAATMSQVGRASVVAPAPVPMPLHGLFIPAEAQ
In words: beta-carotene degradation and decolorization in beta-carotene-accumulating E. coli. As to conditions: co-expression with pAC-BETAipi; […] IPTG induction; GST-fusion vector; products not identified. Format: cell-based.

`CC1=C(/C=C/C(C)=C/C=C/C(C)=C/C=C/C=C(C)/C=C/C=C(C)/C=C/C2=C(C)CCCC2(C)C)C(C)(C)CCC1` [β-carotene]: the “beta-carotene degradation and decolorization in beta-carotene-accumulating E. co” value is given as “evident decolorization was observed in the β-carotene-accumulated bacteria expressing EsNinaBl”.
